Our source for the IC50, EC50 and AC50 values is ChEMBL document CHEMBL1201862, “PubChem BioAssay data set” (2004).

In assay [1] the target is T1, Rac GTPase-activating protein 1 (Homo sapiens, UniProt Q9H0H5).
T1 sequence (Q9H0H5 whole entry): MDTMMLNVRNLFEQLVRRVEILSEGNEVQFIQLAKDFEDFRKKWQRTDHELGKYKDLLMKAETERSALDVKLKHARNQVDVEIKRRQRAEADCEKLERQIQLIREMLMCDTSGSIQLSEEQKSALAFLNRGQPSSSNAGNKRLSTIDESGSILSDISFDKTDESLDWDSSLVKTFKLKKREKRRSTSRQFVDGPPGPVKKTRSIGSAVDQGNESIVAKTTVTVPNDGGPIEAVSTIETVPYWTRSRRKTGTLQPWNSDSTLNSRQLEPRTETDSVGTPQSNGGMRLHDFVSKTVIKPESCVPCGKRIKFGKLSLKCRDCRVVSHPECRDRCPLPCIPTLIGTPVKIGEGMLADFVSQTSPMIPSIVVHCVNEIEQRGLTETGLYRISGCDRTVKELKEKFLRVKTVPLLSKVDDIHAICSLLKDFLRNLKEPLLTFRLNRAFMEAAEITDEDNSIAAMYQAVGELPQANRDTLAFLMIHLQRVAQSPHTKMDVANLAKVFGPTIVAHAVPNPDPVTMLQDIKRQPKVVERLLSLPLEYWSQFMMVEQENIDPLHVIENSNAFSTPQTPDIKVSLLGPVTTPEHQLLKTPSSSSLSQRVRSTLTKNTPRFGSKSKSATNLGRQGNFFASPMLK
Kind of assay: blockers of MgcRacGAP-driven Rac1 GTP hydrolysis – biochemical, ADP Hunter fluorescence, primary and confirmatory, confirmation (AID 624330). The assay is classed as functional.

Assay [2] addresses T2, Fatty acid synthase (Homo sapiens, UniProt P49327). The assay can be described thus: inhibition of human FAS-TE enzyme activity – biochemical, endpoint fluorescence intensity, uHTS hits, dose response (AID 624327).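 Note: fluorescence from hydrolysis of an O-methyl fluorescein acyl ester substrate by the enzyme.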 The assay is classed as functional.
In assay [3] the target is T2, Fatty acid synthase. The assay can be described thus: inhibition of human FAS-TE enzyme activity – biochemical, kinetic fluorescence intensity, dose response (AID 624326).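 Note: rate of fluorescence rise from hydrolysis of a fluorogenic O-methyl fluorescein ester substrate.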 The assay is classed as functional.
Assay [4] is described as follows: Luminescence Cell-Based Dose Confirmation HTS to Identify Activators of 5'UTR Stem-Loop Driven Alpha-Synuclein mRNA Translation in H4 Neuroglioblastoma Cells. [Related pubchem assays: 1829 (Project Summary), 1814 (Primary HTS)]. Format: functional.
Assay [5] in a line: Luminescence Cell-Based Dose Response HTS to Identify Activators of Luciferase Translation or Activity in H4 […] Cells. [Related pubchem assays: 1829 (Project Summary), 1814 (Primary HTS)]. Format: functional.
For another assay, the system named is H4. The assay can be described thus: Luminescence Cell-Based Dose Response HTS to Identify Activators of 5'UTR Stem-Loop Driven Prion Protein mRNA Translation in H4 Neuroglioblastoma Cells. [Related pubchem assays: 1829 (Project Summary), 1814 (Primary HTS)]. The note with it: Homo sapiens. Format: functional.
Assay [6] has as its target T3, Replicative DNA helicase DnaB (Mycobacterium tuberculosis, UniProt P9WMR3).
T3 sequence (P9WMR3 whole entry): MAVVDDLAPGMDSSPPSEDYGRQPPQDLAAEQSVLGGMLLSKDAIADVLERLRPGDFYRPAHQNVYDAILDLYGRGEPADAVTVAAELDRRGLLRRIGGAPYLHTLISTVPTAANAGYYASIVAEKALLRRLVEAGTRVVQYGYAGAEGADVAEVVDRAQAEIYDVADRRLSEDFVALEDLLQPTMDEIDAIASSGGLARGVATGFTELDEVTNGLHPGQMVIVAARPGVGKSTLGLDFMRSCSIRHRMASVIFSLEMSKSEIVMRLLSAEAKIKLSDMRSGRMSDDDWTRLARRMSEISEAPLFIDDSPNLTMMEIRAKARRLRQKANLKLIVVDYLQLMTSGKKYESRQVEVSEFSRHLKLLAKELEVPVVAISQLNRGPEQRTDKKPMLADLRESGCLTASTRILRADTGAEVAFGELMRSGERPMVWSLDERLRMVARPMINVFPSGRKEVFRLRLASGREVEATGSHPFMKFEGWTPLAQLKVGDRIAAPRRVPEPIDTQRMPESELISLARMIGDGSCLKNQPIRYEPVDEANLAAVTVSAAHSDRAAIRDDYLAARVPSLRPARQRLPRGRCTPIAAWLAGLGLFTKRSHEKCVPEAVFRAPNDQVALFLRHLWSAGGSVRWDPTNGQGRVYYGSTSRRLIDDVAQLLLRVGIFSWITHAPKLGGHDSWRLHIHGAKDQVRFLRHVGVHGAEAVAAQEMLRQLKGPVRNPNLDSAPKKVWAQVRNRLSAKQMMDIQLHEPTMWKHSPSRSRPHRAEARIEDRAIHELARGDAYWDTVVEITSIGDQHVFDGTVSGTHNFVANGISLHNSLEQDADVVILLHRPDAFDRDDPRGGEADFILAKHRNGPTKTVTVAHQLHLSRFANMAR
Kind of assay: DnaB intein splicing inhibitors, dose response, biochemical, cell-free fluorescence (AID 449749). Format: functional.

The target in the next assay is T4, Protein RecA (Mycobacterium tuberculosis, UniProt P9WHJ3).
T4 sequence (P9WHJ3 whole entry): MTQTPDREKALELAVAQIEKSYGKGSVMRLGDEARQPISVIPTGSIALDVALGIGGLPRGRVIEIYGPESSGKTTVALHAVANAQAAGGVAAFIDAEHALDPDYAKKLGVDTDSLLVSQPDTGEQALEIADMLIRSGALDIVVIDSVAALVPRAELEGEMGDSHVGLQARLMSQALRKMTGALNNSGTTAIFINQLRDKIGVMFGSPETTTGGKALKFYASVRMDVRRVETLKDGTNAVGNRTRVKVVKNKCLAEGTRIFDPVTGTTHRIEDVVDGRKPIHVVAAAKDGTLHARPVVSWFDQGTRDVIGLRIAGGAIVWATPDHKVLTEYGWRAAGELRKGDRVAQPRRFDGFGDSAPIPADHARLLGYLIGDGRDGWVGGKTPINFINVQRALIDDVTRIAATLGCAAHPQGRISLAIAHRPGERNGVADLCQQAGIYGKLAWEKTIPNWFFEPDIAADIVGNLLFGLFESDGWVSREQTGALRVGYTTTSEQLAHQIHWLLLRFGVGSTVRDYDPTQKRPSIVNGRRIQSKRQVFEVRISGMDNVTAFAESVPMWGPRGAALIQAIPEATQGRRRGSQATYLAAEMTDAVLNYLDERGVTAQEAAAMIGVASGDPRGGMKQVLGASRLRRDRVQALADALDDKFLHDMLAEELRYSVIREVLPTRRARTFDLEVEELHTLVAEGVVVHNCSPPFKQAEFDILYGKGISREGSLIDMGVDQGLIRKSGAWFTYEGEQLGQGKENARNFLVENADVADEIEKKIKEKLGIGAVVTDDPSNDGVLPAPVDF
The assay can be described thus: Fluorescence Cell-Free Homogeneous Dose Retest to Identify Inhibitors of RecA-Intein Splicing Activity. [Related pubchem assays (depositor defined):AID2097, AID2223, AID489010, AID492950]. Format: functional.

A short description of assay [7]: Trypanosoma cruzi growth suppression in host cells – NIH3T3 host cells, beta-gal luminescence, confirmation (AID 2044).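 Note: intracellular parasites grown in NIH/3T3 mouse fibroblasts as host cells; luminescent beta-galactosidase reporter signal from transgenic T. cruzi replicating inside host cells; inhibitors lower the luminescence signal.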 The assay is classed as functional, cell-based.
Assay [8] can be described thus: NIH3T3 cell viability loss – ATP luminescence, mouse fibroblasts, counter-screen, dose response (AID 2010).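 Note: cells exposed to compound for about 90 hours before reading.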 The assay is classed as functional, cell-based. (In general: Counterscreens check selectivity or assay interference.)
Assay [9] in a line: NIH-3T3 fibroblast cytotoxicity, dose response, cytotoxicity control, cell-based, fluorescence, Alamar Blue, secondary assay (AID 2327).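 Note: NIH-3T3 mouse fibroblasts cultured with fluconazole at 8 µg/mL.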 The assay is classed as functional.
Assay [10] is described as follows: fluconazole-exposed Candida albicans growth modulators – fluorescence, retest, confirmation (AID 2467). Format: functional, cell-based.

The source made the active and inactive calls. Cut-off read from the data, not from the text of the source, for most assays here: actives have a measured EC50 and inactives only a lower limit. Bounds are passed on as bounds.

By IC50 is commonly meant the concentration at which inhibition is half-maximal. The EC50 is the midpoint of the concentration-response curve. As usually defined, the AC50 is the concentration at which the activity in the assay is half-maximal.

T2 sequence (P49327 whole entry): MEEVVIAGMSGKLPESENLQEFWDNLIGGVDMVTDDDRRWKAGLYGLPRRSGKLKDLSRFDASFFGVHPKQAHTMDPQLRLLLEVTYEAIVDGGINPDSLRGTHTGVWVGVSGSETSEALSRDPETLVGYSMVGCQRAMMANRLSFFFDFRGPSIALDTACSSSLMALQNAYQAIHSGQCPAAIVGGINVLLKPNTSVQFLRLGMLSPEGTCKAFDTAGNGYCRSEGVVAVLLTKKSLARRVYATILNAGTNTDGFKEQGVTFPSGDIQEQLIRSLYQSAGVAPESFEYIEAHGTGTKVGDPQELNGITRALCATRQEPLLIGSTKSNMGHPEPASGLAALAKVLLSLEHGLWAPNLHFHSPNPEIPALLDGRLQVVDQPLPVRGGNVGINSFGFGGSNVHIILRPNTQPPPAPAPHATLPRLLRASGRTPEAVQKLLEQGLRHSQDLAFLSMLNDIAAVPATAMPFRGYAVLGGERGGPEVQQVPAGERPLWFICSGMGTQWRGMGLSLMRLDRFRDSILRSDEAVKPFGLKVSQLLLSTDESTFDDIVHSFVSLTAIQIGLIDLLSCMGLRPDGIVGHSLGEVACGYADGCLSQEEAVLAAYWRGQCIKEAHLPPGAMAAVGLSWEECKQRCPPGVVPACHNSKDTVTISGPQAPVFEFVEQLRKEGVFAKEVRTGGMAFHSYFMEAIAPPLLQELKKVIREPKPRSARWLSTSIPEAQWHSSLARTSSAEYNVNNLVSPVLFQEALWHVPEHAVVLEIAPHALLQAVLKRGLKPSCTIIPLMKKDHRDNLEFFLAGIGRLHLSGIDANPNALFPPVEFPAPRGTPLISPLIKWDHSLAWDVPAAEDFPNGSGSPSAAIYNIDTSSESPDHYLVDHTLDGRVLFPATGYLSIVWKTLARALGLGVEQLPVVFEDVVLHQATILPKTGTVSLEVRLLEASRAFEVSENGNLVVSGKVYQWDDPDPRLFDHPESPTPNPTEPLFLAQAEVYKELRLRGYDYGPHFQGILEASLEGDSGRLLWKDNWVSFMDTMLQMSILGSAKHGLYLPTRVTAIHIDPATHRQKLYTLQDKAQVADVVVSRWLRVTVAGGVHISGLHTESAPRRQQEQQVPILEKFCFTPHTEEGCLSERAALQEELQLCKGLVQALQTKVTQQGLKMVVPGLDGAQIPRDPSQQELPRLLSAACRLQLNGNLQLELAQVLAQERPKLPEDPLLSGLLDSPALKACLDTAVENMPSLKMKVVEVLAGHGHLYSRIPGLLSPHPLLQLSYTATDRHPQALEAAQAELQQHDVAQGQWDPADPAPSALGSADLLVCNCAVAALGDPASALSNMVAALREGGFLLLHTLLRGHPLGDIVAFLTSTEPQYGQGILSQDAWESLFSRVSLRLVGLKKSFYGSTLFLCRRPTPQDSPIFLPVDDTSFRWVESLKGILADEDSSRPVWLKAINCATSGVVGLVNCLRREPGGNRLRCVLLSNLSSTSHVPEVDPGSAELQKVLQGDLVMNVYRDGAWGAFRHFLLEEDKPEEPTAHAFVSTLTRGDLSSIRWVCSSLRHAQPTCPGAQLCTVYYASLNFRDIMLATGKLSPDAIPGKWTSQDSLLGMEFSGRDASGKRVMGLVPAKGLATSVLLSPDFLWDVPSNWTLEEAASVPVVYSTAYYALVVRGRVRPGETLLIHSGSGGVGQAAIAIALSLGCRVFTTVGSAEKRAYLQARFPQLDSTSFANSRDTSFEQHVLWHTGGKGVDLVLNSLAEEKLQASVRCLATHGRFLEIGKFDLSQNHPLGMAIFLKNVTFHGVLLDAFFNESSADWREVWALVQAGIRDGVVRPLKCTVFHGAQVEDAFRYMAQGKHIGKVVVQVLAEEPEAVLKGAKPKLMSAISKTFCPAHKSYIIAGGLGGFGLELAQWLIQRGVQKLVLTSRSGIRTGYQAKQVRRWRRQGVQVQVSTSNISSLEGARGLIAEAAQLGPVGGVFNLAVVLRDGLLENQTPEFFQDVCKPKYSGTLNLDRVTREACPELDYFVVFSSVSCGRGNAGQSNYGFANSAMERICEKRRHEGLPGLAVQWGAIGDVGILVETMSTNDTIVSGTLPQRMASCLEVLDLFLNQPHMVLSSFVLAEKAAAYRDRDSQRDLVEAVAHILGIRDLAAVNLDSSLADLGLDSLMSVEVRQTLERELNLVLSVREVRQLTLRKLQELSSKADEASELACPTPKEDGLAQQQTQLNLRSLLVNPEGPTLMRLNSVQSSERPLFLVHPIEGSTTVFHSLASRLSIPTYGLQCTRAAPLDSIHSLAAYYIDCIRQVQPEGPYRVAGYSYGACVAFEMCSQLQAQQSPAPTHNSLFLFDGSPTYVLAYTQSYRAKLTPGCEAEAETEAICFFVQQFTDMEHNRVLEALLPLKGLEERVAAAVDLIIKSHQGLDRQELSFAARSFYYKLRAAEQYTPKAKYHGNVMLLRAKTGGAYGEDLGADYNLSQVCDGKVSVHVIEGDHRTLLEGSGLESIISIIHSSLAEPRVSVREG

`CCn1c(-c2ccccc2)cs/c1=N\c1ccc(O)cc1`: the IC50 in [1] was 31.7 µM (active).

On to `Cc1c(Br)c([N+](=O)[O-])nn1CC(=O)Nc1ccc(C(C)C)cc1`, for which the IC50 was 3.18 µM (active) on Fatty acid synthase [2] and 6.92 µM (active) at Fatty acid synthase [3].

Turning to `O=C(CN1CCCCC1)Nc1scc2c1c(=O)oc1ccccc12`, the EC50 in assay [4] is > 120 µM (not active); in assay [5] it was 16.1 µM (active); in the assay on H4, 59.7 µM (active).

Consider `Nc1ccc(S(=O)(=O)Nc2nccc(/C=C/c3ccc(Cl)cc3Cl)n2)cc1`, for which the EC50 in assay [4] is > 120 µM (not active); in assay [5] it was 13.6 µM (active); in the assay on H4 it was > 120 µM (not active).

Take `CC(C)(C)OC(=O)NCc1ccc(CNC(=O)c2[nH]cnc2C(=O)NCC(=O)OCc2ccccc2)cc1`: the IC50 is 6.98 µM (active) at Fatty acid synthase [2] and 4.49 µM (active) on Fatty acid synthase [3].

Turning to `C/C(CC(=O)Nc1ccccc1[N+](=O)[O-])=N\NC(=O)COc1ccccc1C`, the AC50 in assay [6] was 10.5 µM (active). Besides, the EC50 on Protein RecA was 3.85 µM (active).

Regarding `Cc1nc(-c2ccc(S(=O)(=O)Oc3ccccc3Cl)s2)cs1`, the results for the EC50 (in assay [4]; in assay [5]; in the assay on H4) were 13 µM (active), 12 µM (active) and 2.84 µM (active), respectively.

For the compound `COc1cc(C)c(Cl)c(C)c1S(=O)(=O)NC1CC(C)(C)NC(C)(C)C1`, the EC50 is 15.2 µM (active) in [4], > 120 µM (not active) in assay [5] and > 120 µM (not active) in the assay with H4.

Turning to `Cc1cc(C)nc(SC2=CS(=O)(=O)c3ccccc32)n1`, the results for the EC50 (in assay [4]; in the assay on H4) were 12.1 µM (active) and > 120 µM (not active), respectively.

`O=C(Nc1ccc(Cc2ccncc2)cc1)c1ccc(Cl)c([N+](=O)[O-])c1`: the values for the IC50 on Fatty acid synthase [2] and at Fatty acid synthase [3] were 10.2 µM (active) and 10.9 µM (active), respectively.

Take `Cc1cc(O)ccc1Nc1nc(-c2cccnc2)cs1`: the EC50 in assay [4] was 7.92 µM (active); in [5], 0.389 µM (active); in the assay with H4, 6.4 µM (active).

With `CCN1CCN(CCCOc2ccc(Cl)cc2Br)CC1`, the EC50 in assay [7] was 1.6 µM (active); in assay [8], 32.5 µM (active). Moreover, the IC50 in assay [1] was 68.8 µM (active).

For `Cc1ccc(-c2noc(-c3ccccc3C(=O)N3CCOCC3)n2)cc1`, in [6], the AC50 is 196 µM (active). The EC50 at Protein RecA is > 380 µM (inactive).

As to `COc1cccc(C2=NO[C@@H]3C(=O)N(c4ccc5c(c4)OCCO5)C(=O)[C@H]23)c1OC`, the 50% effective concentration (EC50) (in assay [4]; in assay [5]; in the assay on H4) was > 120 µM (not active) in each case.

As for `Nc1nn2c(-c3ccccc3)cc(O)nc2c1N=Nc1ccc(O)cc1`, the IC50 in assay [1] was 60.1 µM (active). Moreover, the AC50 in [6] was 3.91 µM (active). Also, at Protein RecA, the EC50 is 1.88 µM (active).

In the case of `CN(C)/C=C1\NC(=S)N(c2ccccc2)C1=O`, in assay [1], the IC50 was 65.4 µM (active).

For `O=C(NNc1ccc(Cl)cc1)c1c(F)cccc1Cl`, the EC50 in assay [9] is > 150 µM (inactive); in [10] it was > 38 µM (not active).

Regarding `CCc1nnc(NC(=O)C23CC4CC(CC(C4)C2)C3)s1`, the EC50 is 19 µM (active) in assay [4], 45.6 µM (active) in [5] and 8.2 µM (active) in the assay on H4.

Regarding `O=c1c2ccccc2cnn1CCOc1cccc(Br)c1`, the results for the EC50 (in assay [4]; in [5]; with H4) were 27.5 µM (active), 33.9 µM (active) and 6.06 µM (active), respectively.

Take `O=C(CN1CCN(c2ccc(O)cc2)CC1)Nc1ccc2c(c1)OCCCO2`: the IC50 in [1] was 49.7 µM (active).

Consider `COc1ccccc1NC(=O)c1ccccc1S(=O)(=O)c1ccc([N+](=O)[O-])cc1`, for which the IC50 on Fatty acid synthase [2] is 14.9 µM (active); on Fatty acid synthase [3] it was 8.19 µM (active).

Turning to `COc1cc(/C=N/NC(=O)c2cc[n+]([O-])cc2)ccc1O`, the IC50 in assay [1] is 32.7 µM (active).

In the case of `CN1CCN(/N=C/c2nc(-c3ccc(Cl)cc3)n3ccccc23)CC1`, the IC50 in assay [1] is 27.1 µM (active).

For the compound `CC(=O)c1cnc2nc(SCc3ccccc3)nn2c1C`, the EC50 in assay [4] was 0.116 µM (active); in assay [5], 0.131 µM (inconclusive); in the assay with H4, 74.8 µM (active).

Take `CCN1CCN(CCCOc2ccccc2-c2ccccc2)CC1`: the IC50 in assay [1] was 96.9 µM (active).

Turning to `COc1ccc(-c2ccc(=O)n(CC(=O)Nc3cccc(O)c3)n2)cc1OC`, the EC50 in assay [9] was > 150 µM (inconclusive); in [10], > 38 µM (not active).

Consider `O=C(NC1=NCCS1)c1ccc(-c2ccc(Cl)cc2)o1`, for which the EC50 in assay [4] was 21.4 µM (active); in assay [5], 0.306 µM (active).

For the compound `Cc1ccc(NC(=O)CSc2nnc([C@@H](N)Cc3c[nH]c4ccccc34)o2)c(C)c1`, the EC50 in assay [9] is > 150 µM (inactive); in assay [10], > 38 µM (not active).

For `COc1ccc2c(c1)C(=C(C#N)C#N)C(=O)N2CCc1ccccc1`, in assay [6], the AC50 is 3.97 µM (active). For the same compound, on Protein RecA, the EC50 is 21.2 µM (active).

With `CC(=O)C1=C(O)C(=O)N(c2ccc(Br)cn2)C1c1ccc(Br)cc1` (stereo unspecified), the EC50 was > 120 µM (not active) in [4], 0.112 µM (active) in assay [5] and 0.987 µM (active) in the assay on H4.
